Data from US11415579B2, “Assay for measuring a rate of reaction between a target and a ligand candidate” (Imperial College Innovations Ltd., priority 2016, dated 2022).
“And” between values parts separate entries of the source, which are not always exact repeats. Equal values may be shown once.

How the values were obtained:
[1] = Kinetic thiol consumption assay with model thiol glutathione; format: physicochemical; design: Rate constant with glutathione (k(GSH)): unit not given here; details: for Rate constant with glutathione (k(GSH)): 500 μM ligand, 5 μM thiol, phosphate buffer pH 8; for Rate constant with Glutathione: Protein: Glutathione, cysteine position NA, in h-1
How it was run: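 Rate constants for acrylamide reaction with 5 μM glutathione come from first-order exponential fits of normalized fluorescence decay (ex 380, em 470 nm). Reactions run in degassed phosphate buffer at pH 8 containing TCEP beads, room temperature.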

[2] = molecular target: T1, Cdk2(S181C) (C177A) (Homo sapiens, UniProt P24941, C177A/S181C); experiment: Kinetic thiol consumption assay with Cdk2 mutant S181C; format: binding; design: key to Rate enhancement, Cdk2 S181C: rate constant with Cdk2 ÷ rate constant with model thiol (fold); details: additional mutation C177A; for Rate constant with Cdk2 S181C: Protein: Cdk2, cysteine position S181C, in h^-1
T1 construct: poly-histidine; made in house; host or cells: E. coli
How it was run: (§1)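 His-tagged single-surface-cysteine Cdk2 mutants (C177A background) from E. coli, 5 μM in degassed phosphate buffer pH 8, pre-treated with immobilized TCEP beads. Fluorescence (ex/em 380/470 nm) read after 1 h at room temperature, normalized to DMSO/thiol-only control; first-order decay fits gave rate constants, divided by model-thiol rate for rate enhancement.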

[3] = molecular target: T2, Cdk2(C177A, F80C) (Homo sapiens, UniProt P24941, C177A/F80C); experiment: Kinetic thiol consumption assay with Cdk2 mutant F80C, incl. kobs versus concentration (Kd, k2); format: binding; design: key to Rate enhancement, Cdk2 F80C: Cdk2 rate constant divided by model-thiol rate constant; details: additional mutation C177A; for Rate constant with Cdk2 F80C: Protein: Cdk2, cysteine position F80C, in h^-1
T2 construct: poly-histidine; made in house; host or cells: E. coli
How it was run: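 His-tagged Cdk2(C177A/F80C) from E. coli or model thiol, 5 μM in degassed phosphate buffer pH 8 with TCEP beads, reacted with acrylamide ligands; fluorescence (ex/em 380/470 nm) normalized to DMSO control and fitted to first-order decay for kobs. Kd and k2 obtained from hyperbolic fit of kobs versus ligand concentration.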

[4] = molecular target: T3, human cyclin-dependent kinase 2 (Cdk2) (Homo sapiens, UniProt P24941); experiment: Kinetic thiol consumption assay with wild type Cdk2 (C177); format: binding; design: key to Rate enhancement, Cdk2 WT: k(Cdk2) divided by k(model thiol); Rate constant with Cdk2 (k(Cdk2)): unit not given here; details: for Rate constant with Cdk2 (k(Cdk2)): 500 μM ligand, 5 μM thiol, phosphate buffer pH 8; for Rate enhancement, Cdk2 WT: no additional mutations; for Rate constant with Cdk2 WT: Protein: Cdk2, cysteine position WT, in h^-1; for k(Cdk2)/k(Cdk2_mut) rate enhancement: model thiol Cdk2[C177A, F80C, K278C]; for k(Cdk2)/k(GSH) rate enhancement: model thiol glutathione
T3 construct: poly-histidine; made in house; host or cells: E. coli
How it was run: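 Thiol 5 μM (Cdk2 or model thiol), degassed phosphate buffer pH 8, TCEP beads 2% v/v. Plates incubated 1 h RT, ex/em 380/470 nm. First-order decay fit → rate constant; ratio Cdk2/model thiol = rate enhancement.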

[5] = molecular target: T4, Cdk2(N272C) (C177A) (Homo sapiens, UniProt P24941, C177A/N272C); experiment: Kinetic thiol consumption assay with Cdk2 mutant N272C; format: binding; design: key to Rate enhancement, Cdk2 N272: rate constant with Cdk2 ÷ rate constant with model thiol (fold); details: for Rate enhancement, Cdk2 N272: Cdk2 N272, additional mutation C177A; for Rate constant with Cdk2 N272C: Protein: Cdk2, cysteine position N272C, additional mutation C177A, in h^-1
T4 construct: poly-histidine; made in house; host or cells: E. coli
How it was run: as §1

[6] = molecular target: T5, Cdk2[C177A, F80C, K278C] (Homo sapiens, UniProt P24941, C177A/F80C/K278C); experiment: Kinetic thiol consumption assay with mutant Cdk2 as model thiol; format: binding; design: unit not given here; details: 500 μM ligand, 5 μM thiol, phosphate buffer pH 8
T5 construct: poly-histidine; made in house; host or cells: E. coli
How it was run: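 Model thiol: His-tagged human Cdk2 C177A/F80C/K278C (two engineered surface cysteines), E. coli-expressed, 5 μM in degassed phosphate buffer pH 8 with immobilized TCEP beads (2% v/v). Fluorescence (ex/em 380/470 nm) followed over time at room temperature, normalized to DMSO/thiol control. First-order decay fit gives rate constants.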

[7] = molecular target: T6, Cdk2(S276C) (C177A) (Homo sapiens, UniProt P24941, C177A/S276C); experiment: Kinetic thiol consumption assay with Cdk2 mutant S276C; format: binding; design: key to Rate enhancement, Cdk2 S276C: rate constant with Cdk2 ÷ rate constant with model thiol (fold); details: additional mutation C177A; for Rate constant with Cdk2 S276C: Protein: Cdk2, cysteine position S276C, in h^-1
T6 construct: poly-histidine; made in house; host or cells: E. coli
How it was run: as §1

[8] = molecular target: T7, Cdk2(T182C) (C177A) (Homo sapiens, UniProt P24941, C177A/T182C); experiment: Kinetic thiol consumption assay with Cdk2 mutant T182C; format: binding; design: key to Rate enhancement, Cdk2 T182C: rate constant with Cdk2 ÷ rate constant with model thiol (fold); details: additional mutation C177A; for Rate constant with Cdk2 T182C: Protein: Cdk2, cysteine position T182C, in h^-1
T7 construct: poly-histidine; made in house; host or cells: E. coli
How it was run: as §1

[9] = molecular target: T8, Cdk2(R122C) (C177A) (Homo sapiens, UniProt P24941, C177A/R122C); experiment: Kinetic thiol consumption assay with Cdk2 mutant R122C; format: binding; design: key to Rate enhancement, Cdk2 R122C: rate constant with Cdk2 ÷ rate constant with model thiol (fold); details: additional mutation C177A; for Rate constant with Cdk2 R122C: Protein: Cdk2, cysteine position R122C, in h-1
T8 construct: poly-histidine; made in house; host or cells: E. coli
How it was run: as §1

[10] = molecular target: T9, Cdk2(H71C) (C177A) (Homo sapiens, UniProt P24941, C177A/H71C); experiment: Kinetic thiol consumption assay with Cdk2 mutant H71C; format: binding; design: key to Rate enhancement, Cdk2 H71C: rate constant with Cdk2 ÷ rate constant with model thiol (fold); details: additional mutation C177A; for Rate constant with Cdk2 H71C: Protein: Cdk2, cysteine position H71C, in h^-1
T9 construct: poly-histidine; made in house; host or cells: E. coli
How it was run: as §1

| Rate enhancement, Cdk2 S181C [2] | Rate constant with Cdk2 S181C [2] | Rate enhancement, Cdk2 F80C [3] | Rate constant with Cdk2 F80C [3] | Rate constant with Cdk2 (k(Cdk2)) [4] | Rate enhancement, Cdk2 WT [4] | Rate constant with Cdk2 WT [4] | k(Cdk2)/k(Cdk2_mut) rate enhancement [4] | k(Cdk2)/k(GSH) rate enhancement [4] | Rate enhancement, Cdk2 N272 [5] | Rate constant with Cdk2 N272C [5] | Rate constant with Cdk2[C177A, F80C, K278C] (k(Cdk2_mut)) [6] | Rate enhancement, Cdk2 S276C [7] | Rate constant with Cdk2 S276C [7] | Rate enhancement, Cdk2 T182C [8] | Rate constant with Cdk2 T182C [8] | Rate enhancement, Cdk2 R122C [9] | Rate enhancement, Cdk2 H71C [10] | SMILES | Rate constant with glutathione (k(GSH)) [1] | Rate constant with Glutathione [1] | other results |
| --- | --- | --- | --- | --- | --- | --- | --- | --- | --- | --- | --- | --- | --- | --- | --- | --- | --- | --- | --- | --- | --- |
| 0.5975 | 0.03984 | 17.8 | 1.187 | 0.2317 | 3.475 | 0.2317 | 0.3223 | 3.556 | 0.8368 | 0.0558 | 0.7188 | 1.204 | 0.08025 | 9.837 | 0.6559 | 0.1738 | 0.5597 | C=CC(=O)Nc1ccc(C(=O)c2ccccc2)cc1 [CA-219] | 0.06515 | 0.06668 | Rate constant with Cdk2 R122C [9]: 0.01159; Rate constant with Cdk2 H71C [10]: 0.03732 |
| 0 | – | 0.1623 | 0.000611 | 0.00155 | 0.4112 | 0.001548 | 0.4329 | 0.3045 | 0.5596 | 0.002107 | 0.00358 | 0.1717 | 0.0006465 | 1.292 | 0.004866 | 0 | 0.8417 | C=CC(=O)NCCNC(=O)C1CCCN1S(=O)(=O)c1ccccc1 (stereo not shown) [CA-224] | 0.00508 | 0.003765 | Rate constant with Cdk2 H71C [10]: 0.003169 |
| 0.2301 | 0.002114 | 0.4074 | 0.003744 | 0.00116 | 0.1258 | 0.001156 | 0.2924 | 0.2286 | 0.09859 | 0.0009059 | 0.00395 | 0.0707 | 0.0006497 | 1.042 | 0.009576 | 0.2009 | 0.1903 | C=CC(=O)N1CCCC(N2C(=O)CC3(CCCC3)C2=O)C1 (stereo not shown) [CA-236] | 0.00506 | 0.009189 | Rate constant with Cdk2 R122C [9]: 0.001846; Rate constant with Cdk2 H71C [10]: 0.001749 |
| 0.9371 | 0.01697 | 22.32 | 0.4042 | 0.06444 | 3.558 | 0.06444 | 0.3351 | 3.545 | 0.4117 | 0.007455 | 0.1923 | 1.281 | 0.02319 | 7.09 | 0.1284 | 0.9845 | 2.131 | C=CC(=O)Nc1ccccc1C(=O)c1ccccc1 [EL-1004] | 0.01818 | 0.01811 | Rate constant with Cdk2 R122C [9]: 0.01783; Rate constant with Cdk2 H71C [10]: 0.03859 |
| 0.487 | 0.01199 | 1.215 | 0.02991 | 0.035 and 0.03473 | 1.411 | 0.03473 | 0.5928 | 1.4 and 1.411 | 0.3406 | 0.008386 | 0.05859 | 1.314 | 0.03236 | 2.5 | 0.06154 | 0.6852 | 0.2924 | C=CC(=O)Nc1cccc(C(F)(F)F)c1 [EL-1007] | 0.025 and 0.02461 | 0.02462 | hit classification, Example 1 ([4]; hits defined as kCdk2/kGSH>5.8 (3 standard deviations over the mean)): negative compound; Rate constant with Cdk2 R122C [9]: 0.01687; Rate constant with Cdk2 H71C [10]: 0.007199 |
| 0.7584 | 0.006108 | 1.711 | 0.01378 | 0.00519 | 0.6362 | 0.005124 | 0.1479 | 0.6204 | 0 | – | 0.03512 | 0.2841 | 0.002288 | 2.136 | 0.0172 | 0.6595 | 0.3662 | C=CC(=O)Nc1ccccc1-c1ccccc1 [EL-1012] | 0.00837 | 0.008054 | Rate constant with Cdk2 R122C [9]: 0.005312; Rate constant with Cdk2 H71C [10]: 0.002949 |
| 0.5143 | 0.001472 | 0 | – | 0.00166 | 0.579 | 0.001657 | 1.317 | 0.813 | 0.1784 | 0.0005105 | 0.00126 | 0 | – | 0.5328 | 0.001525 | 0 | 0 | C=CC(=O)NCc1ccc(-c2ccccc2)cc1 [EL-1050] | 0.00204 | 0.002862 | – |
